Experimental findings from the NIST ThermoML archive (doi:10.1021/acs.jced.8b01237) are described below.

± gives the expanded uncertainty stated by the source.

The conditions of the data set: 100 kPa, Liquid, Concentric cylinders viscometry.

As to `CCC[N+]1(C)CCCC1.O=S(=O)([N-]S(=O)(=O)C(F)(F)F)C(F)(F)F`, the viscosity is given as 56.6 ± 9.1 mPa·s (298.15 K), 26.48 ± 4.2 mPa·s (318.15 K) and 15.55 ± 2.5 mPa·s (338.15 K).
In the case of `CCCC[N+]1(C)CCCC1.O=S(=O)([N-]S(=O)(=O)C(F)(F)F)C(F)(F)F`, the viscosity was 75.6 ± 12 mPa·s (298.15 K), 34.3 ± 5.5 mPa·s (318.15 K) and 18.62 ± 3 mPa·s (338.15 K).
For `CCCCCC[N+]1(C)CCCC1.O=S(=O)([N-]S(=O)(=O)C(F)(F)F)C(F)(F)F` the same measures were 98.3 ± 16 mPa·s, 41.38 ± 6.6 mPa·s and 21.88 ± 3.5 mPa·s.

The viscosity is the internal friction of a fluid under shear.
